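These data come from cells grown in 96-well plates and exposed to compound for 48 hours at five concentrations. Abbreviation: GI50, concentration required for 50% inhibition of growth.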 The source made the active and inactive calls. Cut-off read from the data, not from the text of the source: active = GI50 up to about 1.1 µM and inactive = higher.
Legend:
Assay in all cases: NCI-60 cell line screen, 48 h
[1] = system: CAKI-1
[2] = system: CCRF-CEM
[3] = system: EKVX
[4] = system: HCC 2998
[5] = system: HCT-116
[6] = system: HOP-92
[7] = system: K562
[8] = system: M14
[9] = system: MOLT-4
[10] = system: NCI-H23
[11] = system: NCI-H522
[12] = system: OVCAR-3
[13] = system: OVCAR-8
[14] = system: SF-268
[15] = system: SK-MEL-2
[16] = system: U-251
[17] = system: UACC-257
[18] = system: UO-31

Measured: GI50

CCN(CC)CCSc1c2ccccc2nc2cc(NCC(=O)Nc3ccccc3-c3ccccc3NC(=O)CNc3ccc4c(SCCN(CC)CC)c5ccccc5nc4c3)ccc12
inactive: [1] > 100 µM | [2] 24.9 µM | [3] > 100 µM | [4] > 100 µM | [5] > 78.3 µM | [6] > 100 µM | [7] 24 µM | [8] > 100 µM | [9] 23.2 µM | [10] > 100 µM | [11] 74.6 µM | [12] > 100 µM | [13] > 100 µM | [14] > 100 µM | [15] > 100 µM | [16] > 100 µM | [17] > 100 µM | [18] > 100 µM

C[C@@H]1OC2(O)[C@H]3CCCN3S(=O)(=O)CCN2C1=O (some centres undefined)
inactive: [1] > 100 µM | [2] > 100 µM | [3] > 100 µM | [4] > 100 µM | [5] > 100 µM | [6] > 100 µM | [7] > 100 µM | [8] > 100 µM | [9] > 100 µM | [10] > 100 µM | [11] > 100 µM | [12] > 100 µM | [13] > 100 µM | [14] > 100 µM | [16] > 100 µM | [17] > 100 µM | [18] > 100 µM

O=c1[nH]c(=O)n(C2CC(O)C(O)C(CO)O2)cc1F (centres undefined)
inactive: [2] > 100 µM | [3] > 100 µM | [4] > 100 µM | [5] > 100 µM | [6] > 100 µM | [7] > 100 µM | [8] > 100 µM | [9] > 100 µM | [10] > 100 µM | [11] > 100 µM | [12] > 100 µM | [13] > 100 µM | [14] > 100 µM | [15] > 100 µM | [16] > 100 µM | [17] > 100 µM | [18] > 100 µM

C1=C2/CC[C@H](Sc3ccccc3)C2C2(CCCCC/1)OCCO2 (some centres undefined)
inactive: [2] 28.6 µM | [3] 32.9 µM | [4] 23.5 µM | [5] 16.5 µM | [6] 3.72 µM | [7] 24.7 µM | [9] 16.6 µM | [10] 16.2 µM | [12] 18.7 µM | [13] 39.3 µM | [14] 39.2 µM | [15] 15.8 µM | [16] 29.3 µM | [17] 15.9 µM

Cc1cccc(C(C)(C)C)c1NC(=O)C(=O)C(C(=O)/C=C\c1ccccc1)C1OC(=O)c2ccccc21 (centres undefined)
inactive: [1] > 100 µM | [2] > 100 µM | [3] > 100 µM | [4] > 100 µM | [5] > 100 µM | [6] > 100 µM | [7] > 100 µM | [8] > 100 µM | [9] > 100 µM | [10] > 100 µM | [11] > 100 µM | [12] > 100 µM | [13] > 100 µM | [14] > 100 µM | [16] > 100 µM | [17] > 100 µM | [18] > 100 µM

COC(=O)/C(=N\NC(=O)C[N+](C)(C)C)C(C(=O)OC)C(=O)C(=O)Nc1ccccc1C(N)=O (centres undefined)
inactive: [1] > 100 µM | [2] > 100 µM | [3] > 100 µM | [4] > 100 µM | [5] > 100 µM | [7] > 100 µM | [8] > 100 µM | [9] > 100 µM | [10] > 100 µM | [11] > 100 µM | [12] > 100 µM | [14] > 100 µM | [15] > 100 µM | [16] > 100 µM | [17] > 100 µM | [18] > 100 µM

CN(C)c1ccc2c(=O)c3ccccc3oc2n1
inactive: [1] > 100 µM | [2] > 100 µM | [3] 35 µM | [4] > 100 µM | [6] > 100 µM | [7] > 100 µM | [8] > 100 µM | [9] > 100 µM | [10] > 100 µM | [11] > 100 µM | [12] 91.6 µM | [13] > 100 µM | [14] > 100 µM | [15] > 100 µM | [17] > 100 µM | [18] 69.2 µM

CN(C)c1ccc(/C=C2\CNC/C(=C\c3ccc(N(C)C)cc3)C2=O)cc1
inactive: [2] 25.8 µM | [3] > 100 µM | [4] 29.3 µM | [5] 16 µM | [6] 15.6 µM | [7] 24.2 µM | [8] 86.7 µM | [9] 24.2 µM | [10] > 100 µM | [12] 38.8 µM | [13] 24.2 µM | [14] > 10 µM | [16] 14.4 µM | [17] 22.5 µM | [18] 36.2 µM

COC(=O)C(C(=O)C(=O)Nc1c(C)cccc1C)c1cnc2ccccc2n1 (centres undefined)
inactive: [1] > 100 µM | [2] > 100 µM | [3] > 100 µM | [4] > 100 µM | [5] > 100 µM | [6] > 100 µM | [7] > 100 µM | [8] > 100 µM | [9] > 100 µM | [10] > 100 µM | [11] > 100 µM | [13] > 100 µM | [14] > 100 µM | [15] > 100 µM | [16] > 100 µM | [17] > 100 µM | [18] > 100 µM

COc1ccc([Se]c2ccc(OC)cc2)cc1
inactive: [1] 23.3 µM | [2] 58.9 µM | [4] > 100 µM | [5] 55.2 µM | [6] 23.9 µM | [7] 60.1 µM | [8] > 100 µM | [9] 41.5 µM | [10] 56.2 µM | [11] 27.2 µM | [12] 76.6 µM | [13] > 100 µM | [14] 56.9 µM | [15] > 100 µM | [16] > 100 µM | [17] 48.2 µM | [18] 2.09 µM

COc1ccc2cc(C(=O)c3ccccc3C(=O)O)ccc2c1
inactive: [1] > 100 µM | [2] > 100 µM | [3] > 100 µM | [4] > 100 µM | [5] > 100 µM | [7] > 100 µM | [8] > 100 µM | [9] > 100 µM | [10] > 100 µM | [11] > 100 µM | [12] > 100 µM | [13] > 100 µM | [14] > 100 µM | [15] > 100 µM | [16] > 100 µM | [17] > 100 µM | [18] > 100 µM

O=C(O)c1ccccc1NC(=O)C1CCCCC1
inactive: [2] > 100 µM | [3] > 100 µM | [4] > 100 µM | [5] > 100 µM | [6] 6.08 µM | [7] > 100 µM | [8] > 100 µM | [9] > 100 µM | [12] > 100 µM | [13] > 100 µM | [14] > 100 µM | [15] > 100 µM | [16] > 100 µM | [17] > 100 µM | [18] > 100 µM

COc1ccc(NC(=O)C(=O)Cc2nc3ccc([N+](=O)[O-])cc3nc2O)c(OC)c1
inactive: [1] > 100 µM | [2] > 100 µM | [3] > 100 µM | [4] > 100 µM | [5] > 100 µM | [6] > 100 µM | [7] > 100 µM | [8] > 100 µM | [9] > 100 µM | [10] > 100 µM | [11] 83.4 µM | [12] > 100 µM | [15] > 100 µM | [17] > 100 µM | [18] > 100 µM

N#CCCN(CCC#N)c1ccc(C(=O)NN)cc1
inactive: [1] > 100 µM | [2] > 100 µM | [3] > 100 µM | [4] > 100 µM | [5] > 100 µM | [6] > 100 µM | [7] > 100 µM | [8] > 100 µM | [9] > 100 µM | [10] > 100 µM | [11] > 100 µM | [12] > 100 µM | [13] > 100 µM | [14] > 100 µM | [16] > 100 µM | [17] > 100 µM | [18] > 100 µM

CC(=O)NC1C(=O)CC(c2ccccc2)N(C)C1c1ccccc1 (centres undefined)
inactive: [1] > 100 µM | [2] > 100 µM | [3] > 100 µM | [4] > 100 µM | [5] > 100 µM | [6] 82.6 µM | [7] > 100 µM | [8] 61 µM | [9] > 100 µM | [10] > 100 µM | [11] > 100 µM | [12] > 100 µM | [13] > 100 µM | [14] > 100 µM | [15] > 100 µM | [16] > 100 µM | [17] > 100 µM | [18] 94.8 µM

CCCCCCCCCCCC(=O)OCC1OC(n2cc(F)c(=O)[nH]c2=O)C(NC(=O)OCc2ccccc2)C(OC(=O)CCCCCCCCCCC)C1O (centres undefined)
inactive: [1] > 100 µM | [2] > 100 µM | [3] > 100 µM | [4] > 100 µM | [5] > 100 µM | [6] > 100 µM | [7] > 100 µM | [8] > 100 µM | [9] > 100 µM | [10] > 100 µM | [11] > 100 µM | [12] > 100 µM | [13] > 100 µM | [14] > 100 µM | [15] > 100 µM | [16] > 100 µM | [17] > 100 µM | [18] > 100 µM

Reference: ChEMBL document CHEMBL1201862, “PubChem BioAssay data set” (2004)
